# According to patent US10233173B2, “Substituted 1,2,3-triazoles as NR2B-selective NMDA modulators” (JANSSEN PHARMACEUTICA NV, priority 2016, dated 2019):
# Biological target: human GluN1/GluN2B NMDA receptors (Homo sapiens, UniProt Q05586+Q13224)
# Assay: Cell-based calcium flux (FLIPR) assay on cloned human NR1/NR2B ion channels expressed in mammalian cells
# Conditions: standard assay; glutamate at ~EC80; FLIPR calcium flux
# In short: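 Calcium influx followed by FLIPR fluorescence after 5 min compound exposure and a further 5 min co-agonist challenge: 10 μM glycine with glutamate at ~EC80 (standard) or EC40 (HTS).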
# human GluN1/GluN2B NMDA receptors, sequence (Q13224 27-1484, other chains not shown): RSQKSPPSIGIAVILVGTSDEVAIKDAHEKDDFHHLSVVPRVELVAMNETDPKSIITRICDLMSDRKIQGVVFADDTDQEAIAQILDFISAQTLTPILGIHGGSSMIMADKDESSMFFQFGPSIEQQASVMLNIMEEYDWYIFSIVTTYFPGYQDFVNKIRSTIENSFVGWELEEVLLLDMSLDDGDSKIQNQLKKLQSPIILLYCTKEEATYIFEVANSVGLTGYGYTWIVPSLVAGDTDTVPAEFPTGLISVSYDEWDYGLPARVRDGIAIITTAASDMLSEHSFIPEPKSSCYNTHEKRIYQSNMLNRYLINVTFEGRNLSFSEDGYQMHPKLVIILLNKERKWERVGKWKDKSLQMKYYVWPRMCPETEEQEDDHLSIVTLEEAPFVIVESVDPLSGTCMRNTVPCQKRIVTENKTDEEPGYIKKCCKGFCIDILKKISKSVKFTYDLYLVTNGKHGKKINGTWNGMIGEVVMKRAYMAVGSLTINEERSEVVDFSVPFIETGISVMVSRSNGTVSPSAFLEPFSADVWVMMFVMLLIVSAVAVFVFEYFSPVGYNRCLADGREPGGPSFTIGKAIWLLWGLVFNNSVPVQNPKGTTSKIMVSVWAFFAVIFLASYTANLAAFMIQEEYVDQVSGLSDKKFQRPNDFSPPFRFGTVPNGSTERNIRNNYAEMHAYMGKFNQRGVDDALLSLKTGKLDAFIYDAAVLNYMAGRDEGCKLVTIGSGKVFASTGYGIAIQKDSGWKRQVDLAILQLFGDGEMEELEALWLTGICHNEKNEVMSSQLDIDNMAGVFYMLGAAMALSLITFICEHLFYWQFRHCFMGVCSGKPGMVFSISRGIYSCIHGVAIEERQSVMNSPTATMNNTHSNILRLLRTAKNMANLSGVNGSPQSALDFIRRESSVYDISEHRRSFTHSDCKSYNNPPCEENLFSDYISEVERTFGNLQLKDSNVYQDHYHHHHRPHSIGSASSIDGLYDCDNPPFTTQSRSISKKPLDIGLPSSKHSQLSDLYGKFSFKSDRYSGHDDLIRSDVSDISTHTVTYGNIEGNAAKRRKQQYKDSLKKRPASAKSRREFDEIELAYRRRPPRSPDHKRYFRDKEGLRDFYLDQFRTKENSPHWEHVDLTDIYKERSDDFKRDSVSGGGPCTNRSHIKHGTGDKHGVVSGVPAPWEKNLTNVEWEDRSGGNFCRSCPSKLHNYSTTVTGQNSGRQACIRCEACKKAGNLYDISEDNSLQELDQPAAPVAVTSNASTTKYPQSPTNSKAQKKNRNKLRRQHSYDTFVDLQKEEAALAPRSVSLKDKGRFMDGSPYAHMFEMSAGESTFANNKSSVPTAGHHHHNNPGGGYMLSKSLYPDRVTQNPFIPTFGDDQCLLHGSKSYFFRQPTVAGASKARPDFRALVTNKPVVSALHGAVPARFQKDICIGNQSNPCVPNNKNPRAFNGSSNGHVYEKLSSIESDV
row,SMILES,IC50 [µM]
1,"Fc1cnc(OCc2cn(-c3ccc(F)c(OC(F)F)c3)nn2)nc1 [Example 492, 2-[[1-[3-(Difluoromethoxy)-4-fluoro-phenyl]triazol-4-yl]methoxy]-5-fluoro-pyrimidine]",0.026
2,"Cc1nc(OCc2cn(-c3ccc(F)c(OC(F)F)c3)nn2)ncc1F [Example 493, 2-[[1-[3-(Difluoromethoxy)-4-fluoro-phenyl]triazol-4-yl]methoxy]-5-fluoro-4-methyl-pyrimidine]",0.004
3,"CCc1ccnc(OCc2cn(-c3ccc(F)c(OC(F)F)c3)nn2)n1 [Example 495, 2-f[[1-[3-(Difluoromethoxy)-4-fluoro-phenyl]triazol-4-yl]methoxy]-4-ethyl-pyrimidine]",0.01
4,"CC(C)c1ccnc(OCc2cn(-c3ccc(F)c(OC(F)F)c3)nn2)n1 [Example 496, 2-[[1-[3-(Difluoromethoxy)-4-fluoro-phenyl]triazol-4-yl]methoxy]-4-isopropyl-pyrimidine]",0.114
5,"COc1ccnc(OCc2cn(-c3ccc(F)c(OC(F)F)c3)nn2)n1 [Example 497, 2-[[1-[3-(Difluoromethoxy)-4-fluoro-phenyl]triazol-4-yl]methoxy]-4-methoxy-pyrimidine]",0.028
6,"OCc1ccnc(OCc2cn(-c3ccc(F)c(OC(F)F)c3)nn2)n1 [Example 498, [2-[[1-[3-(Difluoromethoxy)-4-fluoro-phenyl]triazol-4-yl]methoxy]pyrimidin-4-yl]methanol]",0.019
7,"COCc1ccnc(OCc2cn(-c3ccc(F)c(OC(F)F)c3)nn2)n1 [Example 499, 2-[[1-[3-(Difluoromethoxy)-4-fluoro-phenyl]triazol-4-yl]methoxy]-4-(methoxymethyl)pyrimidine]",0.016
8,"CC(C)(O)c1cnc(OCc2cn(-c3ccc(F)c(OC(F)F)c3)nn2)nc1 [Example 500, 2-[2-[[1-[3-(Difluoromethoxy)-4-fluoro-phenyl]triazol-4-yl]methoxy]pyrimidin-5-yl]propan-2-ol]",0.068
9,"Nc1ccnc(OCc2cn(-c3ccc(F)c(OC(F)F)c3)nn2)n1 [Example 501, 2-[[1-[3-(Difluoromethoxy)-4-fluoro-phenyl]triazol-4-yl]methoxy]pyrimidin-4-amine]",0.052
10,"Nc1cnc(OCc2cn(-c3ccc(F)c(OC(F)F)c3)nn2)nc1 [Example 502, 2-[[1-[3-(Difluoromethoxy)-4-fluoro-phenyl]triazol-4-yl]methoxy]pyrimidin-5-amine]",0.136
11,"CNc1ccnc(OCc2cn(-c3ccc(F)c(OC(F)F)c3)nn2)n1 [Example 503, 2-[[1-[3-(Difluoromethoxy)-4-fluoro-phenyl]triazol-4-yl]methoxy]-N-methyl-pyrimidin-4-amine]",0.008
12,"CCNc1ccnc(OCc2cn(-c3ccc(F)c(OC(F)F)c3)nn2)n1 [Example 504, 2-((1-(3-(Difluoromethoxy)-4-fluorophenyl)-1H-1,2,3-triazol-4-yl)methoxy)-N-ethylpyrimidin-4-amine]",0.007
13,"CN(C)c1ccnc(OCc2cn(-c3ccc(F)c(OC(F)F)c3)nn2)n1 [Example 505, 2-[[1-[3-(Difluoromethoxy)-4-fluoro-phenyl]triazol-4-yl]methoxy]-N,N-dimethyl-pyrimidin-4-amine]",0.007
14,"Fc1ccc(-n2cc(COc3nccc(-c4ccccc4)n3)nn2)cc1OC(F)F [Example 506, 2-[[1-[3-(Difluoromethoxy)-4-fluoro-phenyl]triazol-4-yl]methoxy]-4-phenyl-pyrimidine]",9.75
15,"Fc1ccc(-n2cc(COc3ncc(N4CC(F)C4)cn3)nn2)cc1OC(F)F [Example 507, 2-[[1-[3-(Difluoromethoxy)-4-fluoro-phenyl]triazol-4-yl]methoxy]-5-(3-fluoroazetidin-1-yl)pyrimidine]",0.008
16,"Fc1ccc(-n2cc(COc3ncc(N4CC(F)(F)C4)cn3)nn2)cc1OC(F)F [Example 508, 5-(3,3-Difluoroazetidin-1-yl)-2-[[1-[3-(difluoromethoxy)-4-fluoro-phenyl]triazol-4-yl]methoxy]pyrimidine]",0.019
17,"Fc1ccc(-n2cc(COc3nccc(N4CC(F)C4)n3)nn2)cc1OC(F)F [Example 510, 2-[[1-[3-(Difluoromethoxy)-4-fluoro-phenyl]triazol-4-yl]methoxy]-4-(3-fluoroazetidin-1-yl)pyrimidine]",0.025
18,"Fc1ccc(-n2cc(COc3nccc(N4CC(F)(F)C4)n3)nn2)cc1OC(F)F [Example 511, 4-(3,3-Difluoroazetidin-1-yl)-2-[[1-[3-(difluoromethoxy)-4-fluoro-phenyl]triazol-4-yl]methoxy]pyrimidine]",0.041
19,"Fc1ccc(-n2cc(COc3nccc(N4CC[C@@H](F)C4)n3)nn2)cc1OC(F)F [Example 512, (R)-2-[[1-[3-(Difluoromethoxy)-4-fluoro-phenyl]triazol-4-yl]methoxy]-4-[(3R)-3-fluoropyrrolidin-1-yl]pyrimidine]",0.308
20,"Cc1nc(OCc2cn(-c3ccc(F)c(OC(F)F)c3)nn2)ncc1Cl [Example 513, 5-Chloro-2-[[1-[3-(difluoromethoxy)-4-fluoro-phenyl]triazol-4-yl]methoxy]-4-methyl-pyrimidine]",0.004

row,SMILES,IC50 [µM]
1,"Cc1cnc(OCc2cn(-c3ccc(F)c(OC(F)F)c3)nn2)nc1N [Example 514, 2-[[1-[3-(Difluoromethoxy)-4-fluoro-phenyl]triazol-4-yl]methoxy]-5-methyl-pyrimidin-4-amine]",0.005
2,"CNc1nc(OCc2cn(-c3ccc(F)c(OC(F)F)c3)nn2)ncc1C [Example 515, 2-[[1-[3-(Difluoromethoxy)-4-fluoro-phenyl]triazol-4-yl]methoxy]-N,5-dimethyl-pyrimidin-4-amine]",0.099
3,"Cc1cnc(OCc2cn(-c3ccc(F)c(OC(F)F)c3)nn2)nc1N(C)C [Example 516, 2-[[1-[3-(Difluoromethoxy)-4-fluoro-phenyl]triazol-4-yl]methoxy]-N,N,5-trimethyl-pyrimidin-4-amine]",0.017
4,"Fc1ccc(-n2cc(COc3ncc(F)c(NCC(F)F)n3)nn2)cc1OC(F)F [Example 517, N-(2,2-Difluoroethyl)-2-[[1-[3-(difluoromethoxy)-4-fluoro-phenyl]triazol-4-yl]methoxy]-5-fluoro-pyrimidin-4-amine]",0.912
5,"CNc1nc(OCc2cn(-c3ccc(F)c(OC(F)F)c3)nn2)ncc1F [Example 518, 2-[[1-[3-(Difluoromethoxy)-4-fluoro-phenyl]triazol-4-yl]methoxy]-5-fluoro-N-methyl-pyrimidin-4-amine]",0.092
6,"Fc1ccc(-n2cc(COc3ncc(F)c(NC4CC4)n3)nn2)cc1OC(F)F [Example 519, N-Cyclopropyl-2-((1-(3-(difluoromethoxy)-4-fluorophenyl)-1H-1,2,3-triazol-4-yl)methoxy)-5-fluoropyrimidin-4-amine]",0.204
7,"CNCc1ccnc(OCc2cn(-c3ccc(F)c(OC(F)F)c3)nn2)n1 [Example 520, 1-(2-((1-(3-(Difluoromethoxy)-4-fluorophenyl)-1H-1,2,3-triazol-4-yl)methoxy)pyrimidin-4-yl)-N-methylmethanamine]",0.672
8,"Cc1ccc(-n2cc(COc3ncc(C)c(N)n3)nn2)cc1OC(F)F [Example 521, 2-[[1-[3-(Difluoromethoxy)-4-methyl-phenyl]triazol-4-yl]methoxy]-5-methyl-pyrimidin-4-amine]",0.021
9,"CC(=O)c1cnc(OCc2cn(-c3ccc(C)c(OC(F)F)c3)nn2)nc1 [Example 522, 1-[2-[[1-[3-(Difluoromethoxy)-4-methyl-phenyl]triazol-4-yl]methoxy]pyrimidin-5-yl]ethanone]",0.093
10,"Cc1ccnc(OCc2cn(-c3ccc(C)c(OC(F)F)c3)nn2)n1 [Example 523, 2-[[1-[3-(Difluoromethoxy)-4-methyl-phenyl]triazol-4-yl]methoxy]-4-methyl-pyrimidine]",0.114
11,"Cc1cnc(OCc2cn(-c3ccc(C)c(OC(F)F)c3)nn2)nc1 [Example 524, 2-[[1-[3-(Difluoromethoxy)-4-methyl-phenyl]triazol-4-yl]methoxy]-5-methyl-pyrimidine]",0.028
12,"Cc1ccc(-n2cc(COc3ncc(Br)cn3)nn2)cc1OC(F)F [Example 525, 5-Bromo-2-[[1-[3-(difluoromethoxy)-4-methyl-phenyl]triazol-4-yl]methoxy]pyrimidine]",0.04
13,"Cc1ccc(-n2cc(COc3ncc(C(C)(C)O)cn3)nn2)cc1OC(F)F [Example 526, 2-[2-[[1-[3-(Difluoromethoxy)-4-methyl-phenyl]triazol-4-yl]methoxy]pyrimidin-5-yl]propan-2-ol]",0.425
14,"COCc1ccnc(OCc2cn(-c3ccc(C)c(OC(F)F)c3)nn2)n1 [Example 527, 2-[[1-[3-(Difluoromethoxy)-4-methyl-phenyl]triazol-4-yl]methoxy]-4-(methoxymethyl)pyrimidine]",0.132
15,"Cc1cnc(OCc2nnn(-c3cccc(C(F)F)c3)c2C)nc1C [Example 528, 2-[[1-[3-(Difluoromethyl)phenyl]-5-methyl-triazol-4-yl]methoxy]-4,5-dimethyl-pyrimidine]",0.752
16,"Cc1c(COc2ncc(Cl)cn2)nnn1-c1cccc(C(F)F)c1 [Example 529, 5-Chloro-2-[[1-[3-(difluoromethyl)phenyl]-5-methyl-triazol-4-yl]methoxy]pyrimidine]",1.32
17,"Cc1cnc(OCc2cn(-c3ccc(Cl)c(C(C)(F)F)c3)nn2)nc1 [Example 530, 2-[[1-[4-Chloro-3-(1,1-difluoroethyl)phenyl]triazol-4-yl]methoxy]-5-methyl-pyrimidine]",0.005
18,"Cc1ccnc(OCc2cn(-c3ccc(Cl)c(C(C)(F)F)c3)nn2)n1 [Example 531, 2-[[1-[4-Chloro-3-(1,1-difluoroethyl)phenyl]triazol-4-yl]methoxy]-4-methyl-pyrimidine]",0.017
19,"CC(C)(O)c1cnc(OCc2cn(-c3ccc(Cl)c(C(C)(F)F)c3)nn2)nc1 [Example 532, 2-[2-[[1-[4-Chloro-3-(1,1-difluoroethyl)phenyl]triazol-4-yl]methoxy]pyrimidin-5-yl]propan-2-ol]",0.081
